Experiments:
[1] = target: T1, Avi-KRAS WT (1-169) GppNHp/RAF1 RBD-3xFLAG (52-151) (Homo sapiens, UniProt P01116); test: Raf1-KRAS WT-GppNHP disruption HTRF assay (Biological Example 1); assay type: binding; details: KRAS WT, GppNHp-loaded; Table 11
T1 construct: Avi-KRAS WT (1-169)
Description: (§1) A protein:protein interaction (PPI) Homogeneous Time Resolved Fluorescence (HTRF) assay was used to determine the effectiveness of compounds of the present disclosure in disrupting KRAS protein and effector RAF1 binding.
(§2) The assay buffer included: 50 mM Tris pH 7.5, 100 mM NaCl, 5 mM MgCl2, 0.1% BSA, 0.01% Tween, and 10% DMSO. The bead buffer included: 50 mM Tris pH 7.5, and 0.01% Tween 20. Assay volume of 20 μL was used in a 384 well plate-low volume format.
(§3) The HTRF assay employed the following protocol:
(§4) Protein mix was prepared in assay buffer, and dispensed on plates, 10 μL per well, then incubated for 1 h at room temperature, with 700 rpm shaking, Reagents mix was prepared and dispensed on plates, 10 μL per well, then incubated for 1 h at room temperature, with 700 rpm shaking.
(§5) Data was reported as percentage of activity, with DMSO as 100%. Data was plotted and analyzed using Prism 8.

[2] = target: T2, Avi-KRAS G12D (1-169) GppNHp/RAF1 RBD-3xFLAG (52-151) (Homo sapiens, UniProt P01116, G12D); test: Raf1-KRAS G12D-GppNHP disruption HTRF assay (Biological Example 1); assay type: binding; details: KRAS G12D, GppNHp-loaded
T2 construct: Avi-KRAS G12D (1-169)
Description: as §1, §2, §3, §4, §5

[3] = target: T3, Avi-KRAS G12V (1-169) GppNHp/RAF1 RBD-3xFLAG (52-151) (Homo sapiens, UniProt P01116, G12V); test: Raf1-KRAS G12V-GppNHP disruption HTRF assay (Biological Example 1); assay type: binding; details: KRAS G12V, GppNHp-loaded; Table 11
T3 construct: Avi-KRAS G12V (1-169)
Description: as §1, §2, §3, §4, §5

[4] = system: GP2d cells (KRAS G12D); test: Cell-based pERK HTRF assay in GP2d cell (Biological Example 2); details: GP2d (KRAS G12D) cells
Description: A pERK assay (Perkin Elmer) was used to determine the effectiveness of compounds in disrupting KRAS G12D protein/effector signaling in cells.
On Day 1, cells (GP2d) were seeded into 96-well plates at 3×10^4 cells/well in 80 μL complete growth media (DMEM, 10% FBS).
(§6) On Day 2, cells were treated with compounds at 0.25% DMSO. The source plate was created with compounds diluted in media at 5-fold the final assay concentration. The compounds were run in a 9-point concentration curve starting at 1 μM or in a 9-point concentration curve starting at 100 nM, with a half-log dilution between concentrations. Twenty μL was transferred onto the cell plates (final volume in wells was 100 μL). Plates were harvested after 60 min incubation by aspirating media and adding kit-supplied 1x supplemented lysis buffer to all wells (50 μL per well). Plates were then placed on a plate shaker and incubated at 850 rpm for an additional 30 min.
Antibody mixture solution was prepared by diluting aliquoted d2 and Eu Cryptate antibodies 1:20 in kit supplied detection buffer, and mixing the diluted antibodies solutions (1:1 v:v).
(§7) Samples were homogenized by pipetting up and down and then transferred (16 μL of cell lysates) from the 96-well cell culture plate to two wells of the HTRF 384-well detection plate containing the antibody solution. Plates were centrifuged (524 g for 1 min) and allowed to incubate between 4 and 24 h at room temperature. Maximum signal is reached after 4 h incubation time and remains stable over a period of 24 hours. Therefore, readings can be made between 4 and 24 h of incubation. Plates were centrifuged again (524 g for Imin), then analyzed on the EnVision plate reader using the following settings: Excitation 320 nm, Bandwidth 75 nm; Emission 615 nm, Bandwidth 85 nm; Gain 100%; Flashes 100; Lag 60 μs.

[5] = system: SW620 cells (KRAS G12V); test: Cell-based pERK HTRF assay in SW620 cell (Biological Example 4)
Description: A pERK assay (Perkin Elmer) was used to determine the effectiveness of compounds in disrupting KRAS G12V protein/effector signaling in cells.
On Day 1, cells (SW620) were seeded into 96-well plates at 3×10^4 cells/well in 80 μL complete growth media (RPMI, 10% FBS).
as §6, with “μM,” for “μM or in a 9-point concentration curve starting at 100 nM,”, “4 h” for “60 min”
Antibody mixture solution was prepared by diluting aliquoted d2 and Eu Cryptate antibodies 1:20 in kit supplied detection buffer and mixing the diluted antibodies solutions (1:1 v:v).
as §7, with “Imin)” for “1 min)”, “Maximum signal is reached after 4 h incubation time and remains stable over a period of 24 hours. Therefore, readings can be made between 4 and 24 h of incubation.” left out, “1 min),” for “Imin),”, “En Vision” for “EnVision”

[6] = SW620 (KRAS G12V) cells, pERK HTRF, class symbols

T1 sequence (P01116 1-169 isoform P01116-2): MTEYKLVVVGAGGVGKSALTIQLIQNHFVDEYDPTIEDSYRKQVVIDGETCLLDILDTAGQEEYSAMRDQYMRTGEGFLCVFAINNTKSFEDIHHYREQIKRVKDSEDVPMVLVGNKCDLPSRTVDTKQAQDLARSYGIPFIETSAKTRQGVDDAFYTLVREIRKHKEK
T3 sequence (P01116 1-169 isoform P01116-2 G12V): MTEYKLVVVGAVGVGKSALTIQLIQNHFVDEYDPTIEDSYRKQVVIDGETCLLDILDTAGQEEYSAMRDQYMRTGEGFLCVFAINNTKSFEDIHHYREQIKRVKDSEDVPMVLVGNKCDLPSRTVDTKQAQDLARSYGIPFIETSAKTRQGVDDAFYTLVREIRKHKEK
T2 sequence (P01116 1-169 isoform P01116-2 G12D): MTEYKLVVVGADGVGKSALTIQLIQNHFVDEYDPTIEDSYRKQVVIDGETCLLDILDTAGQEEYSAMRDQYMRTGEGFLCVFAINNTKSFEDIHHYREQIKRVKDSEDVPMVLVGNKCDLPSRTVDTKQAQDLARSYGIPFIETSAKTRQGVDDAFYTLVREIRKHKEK

Row | IC50 [1] | IC50 ([2]; Table 11) | IC50 [3] | IC50 ([4]; GP2d, pERK HTRF) | Structure (SMILES) | other results
1 | 1000 to 10000 nM | 1000 to 10000 nM | 1 to 10 µM |  | CCN(c1nc(OCC23CCCN2CCC3)nc2c(F)c(-c3ccc(F)c4sc(N)nc34)c(C(F)(F)F)cc12)[C@H]1C[C@@H](O)C1 (atropisomer, axis not shown) [Compound 7] | 
2 |  |  |  | 100 to 1000 nM | CN(c1nc(OC[C@@]23CCCN2C[C@H](F)C3)nc2c(F)c(-c3ccc(F)c4sc(N)nc34)c(C(F)(F)F)cc12)C1CC(O)C1 (stereo partly drawn) [Compound 8] | 
3 | 100 to 1000 nM | 100 to 1000 nM | 1 to 10 µM |  | CN(c1nc(OCC23CCCN2CCC3)nc2c(F)c(-c3ccc(F)c4sc(N)nc34)c(C(F)(F)F)cc12)[C@H]1C[C@@H](O)C1 (atropisomer, axis not shown) [Compound 2] | 
4 | 1000 to 10000 nM | 1000 to 10000 nM | > 10 µM |  | CN(c1nc(OCC23CCCN2CCC3)nc2c(F)c(-c3ccc(F)c4sc(N)nc34)c(C(F)(F)F)cc12)[C@H]1C[C@H](CO)C1 (atropisomer, axis not shown) [Compound 1] | 
5 | 1000 to 10000 nM | 1000 to 10000 nM | 1 to 10 µM |  | CN(c1nc(OCC23CCCN2CCC3)nc2c(F)c(-c3ccc(F)c4sc(N)nc34)c(C(F)(F)F)cc12)[C@H]1C[C@H](O)C1 (atropisomer, axis not shown) [Compound 3] | 
6 |  |  |  | < 100 nM | CN(c1nc(OCC2(CN3CCOCC3)CC2)nc2c(F)c(-c3ccc(F)c4sc(N)c(C#N)c34)c(C(F)(F)F)cc12)C1CC(O)C1 (stereo not drawn) [Compound 122] | 
7 | 1000 to 10000 nM | 1000 to 10000 nM | > 10 µM |  | Nc1nc2c(-c3c(C(F)(F)F)cc4c(N[C@H]5CC[C@@H](O)C5)nc(OCC56CCCN5CCC6)nc4c3F)ccc(F)c2s1 (atropisomer, axis not shown) [Compound 60] | 
8 | > 10000 nM | 1000 to 10000 nM | > 10 µM |  | Nc1nc2c(-c3c(C(F)(F)F)cc4c(N5CCCC(CO)C5)nc(OCC56CCCN5CCC6)nc4c3F)ccc(F)c2s1 (stereo not drawn) [Compound 54] | 
9 |  | > 10000 nM |  |  | CN(c1nc(OCC23CCCN2CCC3)nc2c(F)c(-c3ccc(F)c4sc(N)nc34)c(C(F)(F)F)cc12)C1CC(O)C12CCCC2 (single isomer, unassigned) [Compound 11] | 
10 | 1000 to 10000 nM | 1000 to 10000 nM | 1 to 10 µM |  | Nc1nc2c(-c3c(C(F)(F)F)cc4c(N5CC6CCC(C5)C6O)nc(OCC56CCCN5CCC6)nc4c3F)ccc(F)c2s1 (stereo not drawn) [Compound 52] | 
11 |  |  |  |  | CCN(c1nc(OC[C@@]23CCCN2C[C@H](F)C3)nc2c(F)c(-c3ccc(F)c4sc(N)c(C#N)c34)c(C(F)(F)F)cc12)[C@H]1C[C@H](C)N(C(=O)[C@@H](C)OC)C1 (atropisomer, axis not shown) [Compound 763] | IC50 ([4]; pERK HTRF, class symbols): < 100 nM; IC50 [5, 6]: < 100 nM; IC50 ([2]; class symbols): 100 to 1000 nM
12 |  |  |  |  | CCN(c1nc(OC[C@@]23CCCN2C[C@H](F)C3)nc2c(F)c(-c3ccc(F)c4sc(N)c(C#N)c34)c(C(F)(F)F)cc12)C1CC(C(=O)N(C)C)C1 (stereo partly drawn) [Compound 950] | IC50 ([4]; GP2d): < 100 nM; IC50 ([5]; Homo sapiens, SW-620, SW620 (KRAS G12V) cells): < 100 nM
13 | > 10000 nM | > 10000 nM | > 10 µM |  | CCC(=O)N1C2CCC1CN(c1nc(OC[C@@]34CCCN3C[C@H](F)C4)nc3c(F)c(-c4ccc(F)c5sc(N)nc45)c(C(F)(F)F)cc13)C2 [Compound 97] | 
14 | 1000 to 10000 nM | 1000 to 10000 nM | > 10 µM |  | Nc1nc2c(-c3c(C(F)(F)F)cc4c(N[C@H]5C[C@@H](O)C5)nc(OCC56CCCN5CCC6)nc4c3F)ccc(F)c2s1 (atropisomer, axis not shown) [Compound 9] | 
15 | 1000 to 10000 nM | 1000 to 10000 nM | > 10 µM |  | Nc1nc2c(-c3c(C(F)(F)F)cc4c(N5CCC(O)CC5)nc(OCC56CCCN5CCC6)nc4c3F)ccc(F)c2s1 [Compound 51] | 
16 | 1000 to 10000 nM | 1000 to 10000 nM | > 10 µM |  | Nc1nc2c(-c3c(C(F)(F)F)cc4c(N[C@H]5CC[C@H](O)CC5)nc(OCC56CCCN5CCC6)nc4c3F)ccc(F)c2s1 [Compound 63] | 
17 |  |  |  | > 1000 nM | CO[C@H]1CN2CCC[C@]2(COc2nc(N(C)C3CC(O)C3)c3cc(C(F)(F)F)c(-c4ccc(F)c5sc(N)nc45)c(F)c3n2)C1 (stereo partly drawn) [Compound 14] | 
18 | 100 to 1000 nM | 1000 to 10000 nM | 1 to 10 µM |  | CO[C@H]1CN2CCC[C@]2(COc2nc(N(C)[C@H]3C[C@@H](O)C3)c3cc(C(F)(F)F)c(-c4ccc(F)c5sc(N)nc45)c(F)c3n2)C1 (atropisomer, axis not shown) [Compound 14] | 
19 |  |  |  | < 100 nM | CN(c1nc(OC[C@@]23CCCN2C[C@H](F)C3)nc2c(F)c(-c3ccc(F)c4sc(N)c(C#N)c34)c(C(F)(F)F)cc12)C1CC(F)C1 (stereo partly drawn) [Compound 160] | 
20 |  |  |  | > 1000 nM | CN(c1nc(OCC23CCCN2CCC3)nc2c(F)c(-c3ccc(F)c4sc(N)nc34)c(C(F)(F)F)cc12)C1CC(O)C1 (stereo not drawn) [Compound 2] | 
21 |  |  |  | > 1000 nM | CO[C@H]1CN2CCC[C@@]2(COc2nc(N(C)C3CC(O)C3)c3cc(C(F)(F)F)c(-c4ccc(F)c5sc(N)nc45)c(F)c3n2)C1 (stereo partly drawn) [Compound 13] | 
22 |  |  |  |  | CCN(c1nc(OC[C@@]23CCCN2C[C@H](F)C3)nc2c(F)c(-c3ccc(F)c4sc(N)c(C#N)c34)c(C(F)(F)F)cc12)[C@H]1CCN(C(=O)OC2CC(OC)C2)C1 (stereo partly drawn) [Compound 792] | IC50 ([4]; pERK HTRF, class symbols): < 100 nM; IC50 [5, 6]: < 100 nM; IC50 ([2]; class symbols): < 100 nM
23 |  |  |  | > 1000 nM | CN(c1nc(OCC2(CN3CCOCC3)CC2)nc2c(F)c(-c3ccc(F)c4sc(N)nc34)c(C(F)(F)F)cc12)C1CC(O)C1 (stereo not drawn) [Compound 16] | 
24 |  | 100 to 1000 nM |  |  | CCN(CCCO)c1nc(OC[C@@]23CCCN2C[C@H](F)C3)nc2c(F)c(-c3ccc(F)c4sc(N)c(C#N)c34)c(C(F)(F)F)cc12 [Compound 75] | IC50 ([4]; pERK HTRF): < 100 nM
25 |  | 100 to 1000 nM |  |  | CN(c1nc(OC[C@@]23CCCN2C[C@H](F)C3)nc2c(F)c(-c3ccc(F)c4sc(N)c(C#N)c34)c(C(F)(F)F)cc12)[C@@H]1CCN(C(=O)CC#N)C1 (atropisomer, axis not shown) [Compound 102] | IC50 ([4]; pERK HTRF): < 100 nM
26 |  |  |  | 100 to 1000 nM | CN(c1nc(OC[C@@]23CCCN2C[C@H](F)C3)nc2c(F)c(-c3ccc(F)c4sc(N)c(C#N)c34)c(C(F)(F)F)cc12)C1(CC#N)CC(O)C1 (stereo partly drawn) [Compound 249] | IC50 ([5]; SW620 (KRAS G12V) cells, pERK HTRF): 100 to 1000 nM
27 |  |  |  | > 1000 nM | CO[C@@H]1C[C@@H](COc2nc(N(C)C3CC(O)C3)c3cc(C(F)(F)F)c(-c4ccc(F)c5sc(N)nc45)c(F)c3n2)N(C)C1 (stereo partly drawn) [Compound 17] | 
28 |  |  |  | > 1000 nM | CN(c1nc(OC[C@@H]2C[C@@H](F)CN2C)nc2c(F)c(-c3ccc(F)c4sc(N)nc34)c(C(F)(F)F)cc12)C1CC(O)C1 (stereo partly drawn) [Compound 12] | 

Reference: patent publication US20260042764A1, “COMPOSITIONS AND METHODS FOR INHIBITION OF KRAS” (TheRas, Inc., priority 2022, published 2026)
